# In patent publication US4929601A, “Tripeptides useful as immunostimulants as well as in the prevention of metastases” (Ellem Industria Farmaceutica, S.p.A., priority 1987, dated 1990):
# Assays:
# Type in all cases: cell-based
# [1] = test system: spleen cells of normal mice; test: Induction of Thy 1.2 antigen in spleen cells of normal mice
# Source text: The capacity of the tripeptide Arg-Gly-Asp to induce in vitro the differentiation of T cell precursors into lymphocytes expressing T cell markers has been tested by evidencing the induction of Thy 1.2 membrane antigen.
# Spleen cells of normal mice have been used as source of "null" cells.
# Mice were killed by cervical dislocation.
# Spleens were aseptically removed and finely minced with forceps in Hank's balanced salt solution (HBSS) (Gibco Ltd, Paisley, Scotland). A suspension of single cells was obtained through filtration on a fine mesh wire sieve. Mononuclear cells (MNC) have been isolated through differential centrifugation on Lymphoprep (Nyegaard, Oslo, Norway) with continuous density gradient for 20 minutes at 450 g.
# After 3 washes in HBSS, MNC were suspended at a concentration of 5×10^6 cells/ml in 199 medium (Gibco Ltd) supplemented with 1% BSA (Cohn Fr. V. Sigma, St. Louis), L-glutamine 2 mM and 10 mcg/ml of gentamycin sulfate (Schering, Klworth, N.J., U.S.A.) (TC 199-BSA). The cells have been used when their viability was over 95% at the Trypan Blue exclusion test.
# Two hundred μl of the spleen MNC suspension have been mixed with the same volume of the tripeptide opportunely diluted with TC 199-BSA medium. The control cells have only been treated with the medium TC 199-BSA. […] containing 5% CO2, then washed twice with HBSS containing 5% heat-inactivated neonatal calf serum (Gibco) (HBSSS-CS) and finally resuspended in the same medium at a concentration of 10^6 cells/ml.
# The expression of Thy 1.2 antigen was analyzed by IF using and anti-Thy 1.2 monoclonal antibody conjugated with fluorescein (Bio-Yeda, supplied by Technogenetics, S. Mauro Torinese, Italy) at the concentration of 2 mcg/10^6 cells. The cells have been incubated with the antibody for 30 minutes at 4° C.
# After three washes in HBSS, the cells have been resuspended in the same medium and observed with a Leitz Orthomat microscope equipped with epiillumination.
# At least 300 cells have been counted in each evaluation.
# [2] = test system: PHA-stimulated human T lymphocytes; test: DNA synthesis in PHA-stimulated human T lymphocytes in vitro (3H-thymidine); details: for DNA synthesis, 3H-thymidine c.p.m. (mean): control 22642
# Method: Human T lymphocytes, incubated in vitro for 72 hours in presence of 0.5% PHA and different concentrations of the tripeptides under examination, have been analyzed for DNA synthesis (cell proliferation) by means of 3H-thymidine labelling.
# Human T lymphocytes = test: Stimulation of lymphokine production in vitro: BCGF activity of supernatants
# Method: Human T lymphocytes have been incubated with PHA and with or without the peptides under examination for 24 hours (in the case of IL-2) or 72 hours (in the case of BCGF).
# The supernatants have been collected, filtered (0.2 μm) and assayed for the presence of IL-2 or BCGF activity, by adding them at different concentrations to fresh T lymphocytes or to long term cultured B cells. The proliferating activity of these cells, dependent on the presence of the respective growth factor, has been evaluated through 3H-thymidine incorporation.
structure (smiles),measurement,setting,value
"N=C(N)NCCC[C@H](N)C(=O)NCC(=O)N[C@@H](CC(=O)O)C(=O)O [ARG--GLY--ASP, L-Arginyl-glycyl-L-aspartic acid]",VARIATION of % THY 1.2 + cells,"[1]; 0.1 μg/ml, 3 hours of incubation",+3.3
same,% THY 1.2 + CELLS,"[1]; 0.1 μg/ml, 3 hours of incubation, control 22.0",25.3%
same,VARIATION of % THY 1.2 + cells,"[1]; 1 μg/ml, 3 hours of incubation",+5.1
same,% THY 1.2 + CELLS,"[1]; 1 μg/ml, 3 hours of incubation, control 22.0",27.1%
same,VARIATION of % THY 1.2 + cells,"[1]; 10 μg/ml, 3 hours of incubation",+9.4
same,% THY 1.2 + CELLS,"[1]; 10 μg/ml, 3 hours of incubation, control 22.0",31.4%
same,VARIATION of % THY 1.2 + cells,"[1]; 10 μg/ml, 18 hours of incubation",+9.5
same,% THY 1.2 + CELLS,"[1]; 10 μg/ml, 18 hours of incubation, control 17.0",26.5%
same,VARIATION of % THY 1.2 + cells,"[1]; 100 μg/ml, 3 hours of incubation",+7.4
same,% THY 1.2 + CELLS,"[1]; 100 μg/ml, 3 hours of incubation, control 22.0",29.4%
same,VARIATION of % THY 1.2 + cells,"[1]; 100 μg/ml, 18 hours of incubation",+4.7
same,% THY 1.2 + CELLS,"[1]; 100 μg/ml, 18 hours of incubation, control 17.0",21.7%
same,VARIATION of % THY 1.2 + cells,"[1]; 200 μg/ml, 3 hours of incubation",+5.9
same,% THY 1.2 + CELLS,"[1]; 200 μg/ml, 3 hours of incubation, control 22.0",27.9%
same,optimum concentration for Thy 1.2 induction,[1]; in vitro,10 µg/mL
same,PHA-induced human T lymphocyte proliferation (DNA synthesis),"[2]; 72 hours, 0.5% PHA",able to increase
same,DNA synthesis Δ %,[2]; peptide 0.0001 mcg/ml,-3%
same,"DNA synthesis, 3H-thymidine c.p.m. (mean)","[2]; peptide 0.0001 mcg/ml, 72 hours, 0.5% PHA",22002 c.p.m.
same,DNA synthesis Δ %,[2]; peptide 0.001 mcg/ml,+4%
same,"DNA synthesis, 3H-thymidine c.p.m. (mean)","[2]; peptide 0.001 mcg/ml, 72 hours, 0.5% PHA",23519 c.p.m.
same,DNA synthesis Δ %,[2]; peptide 0.01 mcg/ml,+6%
same,"DNA synthesis, 3H-thymidine c.p.m. (mean)","[2]; peptide 0.01 mcg/ml, 72 hours, 0.5% PHA",24034 c.p.m.
same,DNA synthesis Δ %,[2]; peptide 0.1 mcg/ml,+17%
same,"DNA synthesis, 3H-thymidine c.p.m. (mean)","[2]; peptide 0.1 mcg/ml, 72 hours, 0.5% PHA",25814 c.p.m.
same,DNA synthesis Δ %,[2]; peptide 1 mcg/ml,+11%
same,"DNA synthesis, 3H-thymidine c.p.m. (mean)","[2]; peptide 1 mcg/ml, 72 hours, 0.5% PHA",25163 c.p.m.
same,DNA synthesis Δ %,[2]; peptide 10 mcg/ml,+6%
same,"DNA synthesis, 3H-thymidine c.p.m. (mean)","[2]; peptide 10 mcg/ml, 72 hours, 0.5% PHA",24111 c.p.m.
same,BCGF activity Δ %,Human T lymphocytes; 3.125% of supernatant,+257%
same,BCGF ACTIVITY (mean),"Human T lymphocytes; 3.125% of supernatant, T + PHA 1345",4800 COUNTS PER MINUTE
same,BCGF activity Δ %,Human T lymphocytes; 6.25% of supernatant,+299%
same,BCGF ACTIVITY (mean),"Human T lymphocytes; 6.25% of supernatant, T + PHA 2156",8611 COUNTS PER MINUTE
same,BCGF activity Δ %,Human T lymphocytes; 12.5% of supernatant,+206%
same,BCGF ACTIVITY (mean),"Human T lymphocytes; 12.5% of supernatant, T + PHA 5402",16550 COUNTS PER MINUTE
same,BCGF activity Δ %,Human T lymphocytes; 25% of supernatant,+24%
same,BCGF ACTIVITY (mean),"Human T lymphocytes; 25% of supernatant, T + PHA 15030",18645 COUNTS PER MINUTE
same,BCGF activity Δ %,Human T lymphocytes; 50% of supernatant,+19%
same,BCGF ACTIVITY (mean),"Human T lymphocytes; 50% of supernatant, T + PHA 17297",20508 COUNTS PER MINUTE
same,stimulation of the growth factor production,"Human T lymphocytes; IL-2 and BCGF, slightly lower than Arg-Lys-Glu, higher than Arg-Lys-Asp",marked effect of stimulation
